Results on 15 molecules are retold here after patent publication EP3586876A1, “GLUCOSE-SENSITIVE PEPTIDE HORMONES” (Gubra ApS, priority 2018, dated 2020).

This data set in a line: Hydrolysis of linkers with or without glucose present (half-life by LC-MS or UPLC). The class given is physicochemical. Particulars: pH 7.4, 37°C, 0.42 mM linker. The procedure: 1.3-1.8 mg of linkers was dissolved in 100 µL DMSO or 100 µL MeCN. 10 µL was taken out from the DMSO stock solution, diluted with 90µL DMSO and dissolved in 900 µL 1xPBS buffer containing 10 000 equiv glucose, pH 7.4 or 900 µL 1xPBS buffer pH 7.4, to give a final concentration of 0.42 mM of the linker. 10 µL was taken out from the MeCN stock solution, diluted with 40 µL MeCN and dissolved in 950 µL 1xPBS buffer containing 10 000 equiv glucose, pH 7.4 or 950 µL 1xPBS buffer pH 7.4 to give a final concentration of 0.42 mM of the linker. The samples were incubated at 37°C and continuously analysed by LC-MS or UPLC.

Setting [1] is: 5% MeCN in PBS buffer, 10.000 equiv Glc.
Setting [2] is: 10% DMSO in PBS buffer, 10.000 equiv Glc.

SMILES strings stand for the structures. A value given as a limit tells only on which side of the number the result lay.

As for `O=C(OCc1ccccc1)[C@@H]1CSC(c2ccccc2)N1` (stereo partly drawn) [Linker 7, Benzyl (4R)-2-phenyl-1,3-thiazolidine-4-carboxylic acid], the “Half-life of the linker” value runs as follows: under setting [1], greater than 48 h; under setting [2], greater than 48 h.

Take `O=C(O)[C@@H]1CSC(c2ccccc2O)N1` (some centres unmarked) [Linker 3]: the “Half-life of the linker” value by setting is: under setting [2], 0.5 h; (10% DMSO in PBS buffer, no Glc) 2 h.

As to `COc1ccccc1C1N[C@H](C(=O)OCc2ccccc2)CS1` (stereo partly drawn) [Linker 10, Benzyl (4R)-2-(2-methoxyphenyl)-1,3-thiazolidine-4-carboxylic acid], the “Half-life of the linker” value under setting [1] is 45 h and the “Half-life of the linker” value under setting [2] is listed as 23 h.

Take `O=C(O)[C@@H]1CSC(c2ccc([N+](=O)[O-])cc2)N1` (some centres unmarked) [Linker 5]: the “Half-life of the linker” value is listed as greater than 24 h under setting [2] and greater than 72 h (10% DMSO in PBS buffer, no Glc).

On to `O=C(O)[C@@H]1CSC(Cc2ccccc2)N1` (some centres unmarked) [Linker 6], for which the “Half-life of the linker” value runs as follows: under setting [2], 24 h; (10% DMSO in PBS buffer, no Glc) greater than 72 h.

With `COc1ccc(C2OC[C@@H](C(=O)OCc3ccccc3)N2C(=O)OC(C)(C)C)cc1` (some centres unmarked) [Linker 13], the “Half-life of the linker” value under setting [1] is listed as greater than 72 h; the “Half-life of the linker” value (5% MeCN in PBS buffer, no Glc) is greater than 72 h; the “Half-life of the linker” value under setting [2] is given as greater than 72 h; the “Half-life of the linker” value (10% DMSO in PBS buffer, no Glc) is recorded as greater than 72 h.

For `O=C(O)[C@@H]1CSC(c2ccccc2)N1` (some centres unmarked) [Linker 1], the “Half-life of the linker” value by setting is: under setting [2], 12 h; (10% DMSO in PBS buffer, no Glc) greater than 48 h.

As for `CC(C)(C)OC(=O)N1C(c2ccccc2)OC[C@H]1C(=O)OCc1ccccc1` (some centres unmarked) [Linker 15], the “Half-life of the linker” value was greater than 72 h under setting [1]; greater than 72 h (5% MeCN in PBS buffer, no Glc); greater than 72 h under setting [2]; greater than 72 h (10% DMSO in PBS buffer, no Glc).

As to `COc1ccc(C2N[C@H](C(=O)O)CS2)cc1` (some centres unmarked) [Linker 2], the “Half-life of the linker” value runs as follows: under setting [2], 2 h; (10% DMSO in PBS buffer, no Glc) 4 h.

For the molecule `COC(=O)[C@@H]1OC(c2ccc(OC)cc2)O[C@H]1C(=O)OC` [Linker 17], the “Half-life of the linker” value is listed as 2.2 h under setting [1]; 2.2 h (5% MeCN in PBS buffer, no Glc); 1.1 h under setting [2]; 1.8 h (10% DMSO in PBS buffer, no Glc).

As for `COC(=O)[C@@H]1OC(c2ccccc2OC)O[C@H]1C(=O)OC` [Linker 19], the “Half-life of the linker” value runs as follows: under setting [1], 2.5 h; (5% MeCN in PBS buffer, no Glc) 2.5 h; under setting [2], 1.5 h; (10% DMSO in PBS buffer, no Glc) 1.7 h.

With `CC(=O)Nc1ccc(C2N[C@H](C(=O)OCc3ccccc3)CS2)cc1` (stereo partly drawn) [Linker 11, Benzyl (4R)-2-(4-acetamidophenyl)-1,3-thiazolidine-4-carboxylic acid], the “Half-life of the linker” value runs as follows: under setting [1], greater than 72 h; under setting [2], greater than 72 h.

Consider `COc1ccc(C2N[C@H](C(=O)O)CS2)cc1O` (some centres unmarked) [Linker 4], for which the “Half-life of the linker” value reads like this: under setting [2], 4 h; (10% DMSO in PBS buffer, no Glc) 10 h.

In the case of `COc1cccc(C2N[C@H](C(=O)OCc3ccccc3)CS2)c1` (stereo partly drawn) [Linker 9, Benzyl (4R)-2-(3-methoxyphenyl)-1,3-thiazolidine-4-carboxylic acid], the “Half-life of the linker” value was greater than 72 h under setting [1] and greater than 72 h under setting [2].

As for `COc1ccc(C2N[C@H](C(=O)OCc3ccccc3)CS2)cc1` (stereo partly drawn) [Linker 8, Benzyl (4R)-2-(4-methoxyphenyl)-1,3-thiazolidine-4-carboxylic acid], the “Half-life of the linker” value by setting is: under setting [1], 46 h; under setting [2], 42 h.
